Test results: patent publication US20240294535A1, “IMIDAZOTRIAZINE THIOBENZAMIDE DERIVATIVE, AND PREPARATION METHOD AND APPLICATION THEREOF” (Yunbaiyao Zhengwu Science and Technology (Shanghai) Co., …, priority 2023, published 2024)
Read-outs that look alike come from different tables or passages of the source.

Experiments:
c-MET = c-MET (Homo sapiens (Human), UniProt P08581); experiment: c-MET kinase inhibitory activity (ELISA, poly(Glu,Tyr) substrate); assay type: biochemical; conditions: read-out: c-MET kinase inhibitory enzymatic activity IC50
MKN-45 cells = experiment: Anti-proliferation activity, CTG, MKN-45 cells; assay type: cell-based
Procedure: (§1) Experimental objective: To evaluate the anti-proliferation activities of the compounds against MKN-45 cells, EBC-1 cells, Hs746T cells and Vero cells.
(§2) Experimental methods: Tumor cell lines were cultured and periodically passaged, and cells in logarithmic growth phase were taken for plate spreading. The cells were stained with Trypan blue, counted and adjusted to an appropriate density. 50 μL of cell suspension was added into each well of a culture plate, and 50 μL of nutrient solution without cells was added into a blank control well. The culture plate was precultured for 24 h in an incubator under the condition of 37° C., 5% CO2 and 100% relative humidity.
(§3) The DMSO stock solutions of the compounds 1-28 and Capmatinib were prepared, and diluted with Tecan D300e. Each compound was diluted to 7 concentration levels: 0.50 μM, 0.125 μM, 0.031 μM, 0.0078 μM, 0.0020 μM, 0.00049 μM, 0.00012 μM. The experiment was carried out in triplicate.
(§4) 50 μL of the solution was added into each designated well, and the culture plate was incubated for 48 h. 50 μL of CTG working solution was added to each well. The culture plate was wrapped with aluminum foil to avoid light and shaken in the shaker for 2 min to induce cell lysis. The culture plate was placed at room temperature for 10 min to stabilize light-emitting signal which was detected with a 2014 EnVision plate reader. Experimental data was processed by GraphPad Prism 7 to calculate IC50.

EBC-1 cells = experiment: Anti-proliferation activity, CTG, EBC-1 cells; assay type: cell-based, human
Procedure: as §1, §2, §3, §4

Hs746T cells = experiment: Anti-proliferation activity, CTG, Hs746T cells; assay type: cell-based
Procedure: as §1, §2, §3, §4

Vero cells = experiment: Anti-proliferation activity, CTG, Vero cells; assay type: cell-based
Procedure: as §1, §2, §3, §4

[1] = system: human EBC-1 cell subcutaneous xenograft model; experiment: In vivo anti-tumor assessment in EBC-1 cell xenograft tumor mouse model; set-up: species or system mice; conditions: 10 mg/kg P.O. QD × 15 days; for inhibition of growth of the tumor in mice (tumor volume change): end of the experiment, FIG. 2
Procedure: Experimental objective: To investigate in vivo efficacy of representative compounds on human lung squamous carcinoma cell (human EBC-1 cell) subcutaneous xenograft model.
Experimental methods: The EBC-1 cell xenograft tumor mouse model was used, according to the diameters of tumor, the tumor volume (TV), relative tumor volume (RTV), relative tumor proliferation rate (T/C (%)) and tumor growth inhibition value (TGI (%)) were calculated.
TGI (%) or T/C (%) of the compounds was evaluated. TGI (%) reflects a tumor growth inhibitory rate. TGI (%) was calculated as follows: TGI (%)=[1−(average tumor volume at the end of administration in a treatment group-average tumor volume at the beginning of administration in the treatment group)/(average tumor volume at the end in a solvent control group-average tumor volume at the beginning in the solvent control group)]×100%.
T/C (%) was calculated as follows: T/C (%)=TRTV/CRTV×100%; where TRTV is treatment RTV, and CRTV is negative control RTV. According to the measurement results of the tumor, RTV was calculated, and the calculating formula for RTV is as follows: RTV=Vt/V0; where V0 is the average tumor volume measured on the day of first administration; and Vt is the average tumor volume measured on a specified day. TRTV and CRTV were measured on the same day.

SPF Kunming mice = conditions: mouse, in vivo, po
in vivo = conditions: both, Kunming, mouse, po
[2] = Homo sapiens, MKN-45 cells, 48 h, CTG
[3] = Homo sapiens, EBC-1 cells, 48 h, CTG
[4] = Homo sapiens, Hs746T cells, 48 h, CTG
[5] = Chlorocebus sabaeus, Vero cells, 48 h, CTG

Chain of c-MET (P08581 25-1390): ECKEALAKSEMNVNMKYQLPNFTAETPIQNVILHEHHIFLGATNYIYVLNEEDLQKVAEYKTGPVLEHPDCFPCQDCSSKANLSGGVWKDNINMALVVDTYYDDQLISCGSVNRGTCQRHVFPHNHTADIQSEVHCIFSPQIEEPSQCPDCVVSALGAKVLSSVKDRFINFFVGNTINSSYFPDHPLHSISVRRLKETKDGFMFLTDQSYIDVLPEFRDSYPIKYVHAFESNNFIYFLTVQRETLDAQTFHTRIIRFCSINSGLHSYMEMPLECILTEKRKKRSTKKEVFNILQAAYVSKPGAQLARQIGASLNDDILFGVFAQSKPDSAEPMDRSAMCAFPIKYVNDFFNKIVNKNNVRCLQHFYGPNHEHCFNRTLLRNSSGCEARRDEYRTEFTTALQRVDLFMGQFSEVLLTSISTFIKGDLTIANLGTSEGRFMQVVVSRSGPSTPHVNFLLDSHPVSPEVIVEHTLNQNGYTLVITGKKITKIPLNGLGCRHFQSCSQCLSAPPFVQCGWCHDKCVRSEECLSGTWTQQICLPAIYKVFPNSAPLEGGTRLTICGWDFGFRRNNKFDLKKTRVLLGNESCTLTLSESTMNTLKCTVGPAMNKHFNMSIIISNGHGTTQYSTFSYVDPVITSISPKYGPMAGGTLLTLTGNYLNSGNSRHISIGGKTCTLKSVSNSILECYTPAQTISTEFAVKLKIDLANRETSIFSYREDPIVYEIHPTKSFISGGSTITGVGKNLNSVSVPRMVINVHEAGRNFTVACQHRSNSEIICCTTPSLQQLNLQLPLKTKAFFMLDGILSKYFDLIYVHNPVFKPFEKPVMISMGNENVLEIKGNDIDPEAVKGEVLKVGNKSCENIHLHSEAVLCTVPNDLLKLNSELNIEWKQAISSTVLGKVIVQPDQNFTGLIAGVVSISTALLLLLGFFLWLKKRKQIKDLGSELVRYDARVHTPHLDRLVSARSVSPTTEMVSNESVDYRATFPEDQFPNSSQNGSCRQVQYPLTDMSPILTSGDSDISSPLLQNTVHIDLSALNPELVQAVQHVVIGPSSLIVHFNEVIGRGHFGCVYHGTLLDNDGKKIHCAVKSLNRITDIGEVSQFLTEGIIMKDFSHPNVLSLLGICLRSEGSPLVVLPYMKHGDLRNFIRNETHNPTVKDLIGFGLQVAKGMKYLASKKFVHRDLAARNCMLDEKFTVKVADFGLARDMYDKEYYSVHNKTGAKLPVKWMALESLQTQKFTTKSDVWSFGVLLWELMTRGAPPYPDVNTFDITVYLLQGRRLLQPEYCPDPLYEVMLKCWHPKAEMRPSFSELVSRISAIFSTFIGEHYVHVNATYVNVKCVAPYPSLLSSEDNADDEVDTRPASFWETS

Structure (SMILES)	IC50 (c-MET; ATP 4 μM, 37° C. 1 h) [nM]	IC50 (MKN-45 cells; MKN-45 cells, 48 h, CTG) [nM]	IC50 (EBC-1 cells; EBC-1 cells, 48 h, CTG) [nM]	IC50 (Hs746T cells; Hs746T cells, 48 h, CTG) [nM]	IC50 (Vero cells; Vero cells, 48 h, CTG) [nM]	LD50 (SPF Kunming mice) [mg/kg]	also measured
CNC(=S)c1ccc(-c2cnc3ncc(Cc4ccc5ncccc5c4)n3n2)cc1F [Compound 1]	0.0022	1.5	1.4	1.6	129	293	T/C(%) [1]: 15.09%; TGI(%) [1]: 103.24%; Tumor Volume (Day 15) [1]: 136 ± 17 mm^3; inhibition of growth of the tumor in mice (tumor volume change) [1]: better inhibitory effects
CC(C)NC(=S)c1ccc(-c2cnc3ncc(Cc4ccc5ncccc5c4)n3n2)cc1F [Compound 3]	0.0016						IC50 (MKN-45 cells; [2]): 1.5 nM; IC50 (EBC-1 cells; [3]): 1.8 nM; IC50 (Hs746T cells; [4]): 1.5 nM; IC50 (Vero cells; [5]): 101 nM; LD50 (in vivo): 291 mg/kg
CNC(=S)c1ccc(-c2cnc3ncc(Cc4cc(F)c5ncccc5c4F)n3n2)cc1F [Compound 14]	0.0026						IC50 (MKN-45 cells; [2]): 1.5 nM; IC50 (EBC-1 cells; [3]): 1.2 nM; IC50 (Hs746T cells; [4]): 1.1 nM; IC50 (Vero cells; [5]): 226 nM; LD50 (in vivo): 291 mg/kg
CNC(=S)c1ccc(-c2cnc3ncc(C(F)(F)c4ccc5ncccc5c4)n3n2)cc1F [Compound 28]	0.0018	1.5	1.2	1.4	237	294	
CNC(=S)c1ccc(-c2cnc3ncc(Cc4ccc5scnc5c4)n3n2)cc1F [Compound 19]	0.0019						IC50 (MKN-45 cells; [2]): 1.9 nM; IC50 (EBC-1 cells; [3]): 1.4 nM; IC50 (Hs746T cells; [4]): 1.4 nM; IC50 (Vero cells; [5]): 251 nM; LD50 (in vivo): 297 mg/kg
CNC(=S)c1ccc(-c2cnc3ncc(C(N)c4ccc5ncccc5c4)n3n2)cc1F (stereo not shown) [Compound 26]	0.0017	1.1	1.8	1.1	282	295	
CNC(=S)c1ccc(-c2cnc3ncc(Cc4cc(C(F)(F)F)c5ncccc5c4)n3n2)cc1F [Compound 16]	0.0015	1.3	1.3	1.7	156	296	T/C(%) [1]: 17.98%; TGI(%) [1]: 99.73%; Tumor Volume (Day 15) [1]: 162 ± 23 mm^3; inhibition of growth of the tumor in mice (tumor volume change) [1]: better inhibitory effects
CNC(=S)c1ccc(-c2cnc3ncc(C(=O)c4ccc5ncccc5c4)n3n2)cc1F [Compound 22]	0.0016	1.5	1.7	1.8	231		
CNC(=S)c1ccc(-c2cnc3ncc(C(c4ccc5ncccc5c4)N(C)C)n3n2)cc1F (stereo not shown) [Compound 25]						287	IC50 (c-MET): 0.0023 nM; IC50 (MKN-45 cells): 1.3 nM; IC50 (EBC-1 cells): 1 nM; IC50 (Hs746T cells): 1.3 nM; IC50 (Vero cells): 192 nM
CNC(=S)c1ccc(-c2cnc3ncc(Cc4ccc5c(c4)OCO5)n3n2)cc1F [Compound 20]	0.0021						IC50 (MKN-45 cells; [2]): 1.1 nM; IC50 (EBC-1 cells; [3]): 1.8 nM; IC50 (Hs746T cells; [4]): 1.2 nM; IC50 (Vero cells; [5]): 164 nM; LD50 (in vivo): 305 mg/kg
CNC(=S)c1ccc(-c2cnc3ncc(Cc4ccc5occc5c4)n3n2)cc1F [Compound 18]	0.0013						IC50 (MKN-45 cells; [2]): 1.5 nM; IC50 (EBC-1 cells; [3]): 1.1 nM; IC50 (Hs746T cells; [4]): 1.5 nM; IC50 (Vero cells; [5]): 148 nM; LD50 (in vivo): 302 mg/kg
CNC(=S)c1ccc(-c2cnc3ncc(C(OC)c4ccc5ncccc5c4)n3n2)cc1F (stereo not shown) [Compound 23]	0.0015	1.7	1.1	1.4	157	320	
CNC(=S)c1cc(F)c(-c2cnc3ncc(Cc4ccc5ncccc5c4)n3n2)cc1F [Compound 6]	0.0015	1.9	1.9	1.9	116	292	
CN(C)C(=S)c1ccc(-c2cnc3ncc(Cc4ccc5ncccc5c4)n3n2)cc1F [Compound 2]	0.0019						IC50 (MKN-45 cells; [2]): 1.1 nM; IC50 (EBC-1 cells; [3]): 1.2 nM; IC50 (Hs746T cells; [4]): 1.4 nM; IC50 (Vero cells; [5]): 126 nM; LD50 (in vivo): 284 mg/kg
CNC(=S)c1ccc(-c2cnc3ncc(/C(=N/OC)c4ccc5ncccc5c4)n3n2)cc1F [Compound 27]	0.0019	1.3	1.5	1.8	163	310	
CNC(=S)c1ccc(-c2cnc3ncc(Cc4ccc5ncccc5c4)n3n2)c(F)c1 [Compound 5]	0.0021	1.6	1.2	1.6	138	298	
CNC(=S)c1ccc(-c2cnc3ncc(Cc4cc(F)c5ncccc5c4)n3n2)cc1F [Compound 13]	0.0017	1.2	1.7	1.4	152	314	
CNC(=S)c1ccc(-c2cnc3ncc(Cc4ccc5ncccc5c4)n3n2)cc1Cl [Compound 8]	0.0019	1.7	1.8	1.8	142	321	
CNC(=S)c1ccc(-c2cnc3ncc(Cc4cc(Cl)c5ncccc5c4)n3n2)cc1F [Compound 15]	0.0013	1.6	1.5	1.3	238	305	
CNC(=S)c1ccc(-c2cnc3ncc(C(O)c4ccc5ncccc5c4)n3n2)cc1F (stereo not shown) [Compound 21]	0.0014	1.2	1.3	1.1	132	298	
CNC(=S)c1ccc(-c2cnc3ncc(Cc4ccc5ncccc5c4)n3n2)c(F)c1F [Compound 7]	0.0022	1.3	1.2	1.8	127	305	
